Reference: US6420119B1, “Methods of diagnosing and treating urinary incontinence relating to collagen proteolysis in pelvic supporting tissue” (The Board of Trustees of the Leland Stanford Jr. University, priority 1999, dated 2002)
Structures can show the parent of a compound that is named as a salt.

Key:
procollagenase [1] = conditions: pregnant guinea pig cervix; cited from earlier work
TIMPs = conditions: cultured rabbit uterine cervical fibroblasts; cited from earlier work
procollagenase [2] = conditions: cultured rabbit uterine cervical fibroblasts; cited from earlier work
collagenase = conditions: human cervix, intravenous; cited from earlier work
[3] = patients with advanced lung carcinoma; relative to levels required for MMP inhibition in vitro; cited from earlier work
[4] = tested on: matrix metalloproteinases; conditions: human endometrium during the menstrual cycle; cited from earlier work
TIMP-1 = TIMP-1 mRNA expression in cultured human endometrial stromal cells; type: cell-based; conditions: vs control cells
Excerpt: (§1) (a) GnRH Agonist: Trophoblast invasion is regulated in part by MMP-9 which can be inhibited by both TIMP-1 and TIMP-3 (25). […] Moreover, the expression of TIMP-1 appeared to be affected to a much greater extent than that of TIMP-3 (26).
(§2) Our laboratory has examined the ability of IL-1β and transforming growth factor-β (TGF-13) to regulate MMP-9, TIMP-1, and TIMP-3 mRNA expression in cultured human endometrial stromal cells (28). In these cultured endometrial stromal cells, TIMP-1 and TIMP-3 but not MMP-9 mRNA were expressed.

MMP-9 = MMP-9 mRNA expression in cultured human endometrial stromal cells; type: cell-based
Excerpt: as §2

TIMP-3 = TIMP-3 mRNA expression in cultured human endometrial stromal cells; type: cell-based; conditions: vs control cells
Excerpt: as §1, §2

Compound | level of TIMPs in the culture media (TIMPs) | levels of procollagenase in the culture medium (procollagenase [2]) | TIMP-1 mRNA expression (TIMP-1) | TIMP-3 mRNA expression (TIMP-3) | also measured
C[C@]12CC[C@@H]3c4ccc(O)cc4CC[C@H]3[C@@H]1CC[C@@H]2O [17β-estradiol] | increased | declined | – | – | procollagenase activity (procollagenase [1]): doubled
C[C@]12CC[C@H](OS(=O)(=O)O)CC1=CC[C@@H]1[C@@H]2CC[C@]2(C)C(=O)CC[C@@H]12 [DHEAS, dehydroepiandosterone sulfate] | – | – | – | – | increase in collagenase activity (collagenase): over 150%
CNC(=O)[C@@H](NC(=O)[C@H](CC(C)C)[C@H](O)C(=O)NO)C(C)(C)C [Marimastat] | – | – | – | – | plasma levels [3]: substantially higher than those required for MMP inhibition in vitro
CC(=O)[C@H]1CC[C@H]2[C@@H]3CCC4=CC(=O)CC[C@]4(C)[C@H]3CC[C@]12C [progesterone] | increased | declined | – | – | gene expression of matrix metalloproteinases [4]: repressed
IL-1β: cytokine | – | – | decrease | decrease | procollagenase production (procollagenase [1]): two-fold increase; MMP-9 expression (MMP-9): stimulation
TGF-β | – | – | augmented | augmented | –
